This is an account of results in ChEMBL document CHEMBL1135773, “Purine and pyrimidine (P2) receptors as drug targets” (J Med Chem, 2002).

Experiment [1] has as its target T1, P2X purinoceptor 1 (Rattus norvegicus, UniProt P47824).
T1 sequence (P47824 whole entry): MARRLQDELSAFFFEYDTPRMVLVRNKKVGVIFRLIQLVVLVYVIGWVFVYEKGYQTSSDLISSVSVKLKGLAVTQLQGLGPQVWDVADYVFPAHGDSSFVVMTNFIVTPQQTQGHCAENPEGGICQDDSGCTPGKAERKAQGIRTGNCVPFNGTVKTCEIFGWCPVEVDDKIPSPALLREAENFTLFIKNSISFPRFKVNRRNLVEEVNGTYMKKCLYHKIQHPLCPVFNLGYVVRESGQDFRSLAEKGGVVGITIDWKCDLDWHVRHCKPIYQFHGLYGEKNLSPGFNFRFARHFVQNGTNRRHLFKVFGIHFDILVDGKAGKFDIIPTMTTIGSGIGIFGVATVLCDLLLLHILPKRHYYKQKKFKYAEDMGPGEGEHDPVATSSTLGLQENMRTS
Briefly: The compound was evaluated for antagonist activity against P2X purinoceptor 1 (P2X1) like receptor from rat vas deferens. It counts as functional.

In experiment [2] the target is P2Y purinoceptor 1 (Meleagris gallopavo, UniProt P49652). Briefly: Evaluated for agonist activity against phospholipase C coupled P2Y purinoceptor 1 (P2Y1) of turkey erythrocytes. It counts as functional.
Chain of P2Y purinoceptor 1 (P49652 whole entry): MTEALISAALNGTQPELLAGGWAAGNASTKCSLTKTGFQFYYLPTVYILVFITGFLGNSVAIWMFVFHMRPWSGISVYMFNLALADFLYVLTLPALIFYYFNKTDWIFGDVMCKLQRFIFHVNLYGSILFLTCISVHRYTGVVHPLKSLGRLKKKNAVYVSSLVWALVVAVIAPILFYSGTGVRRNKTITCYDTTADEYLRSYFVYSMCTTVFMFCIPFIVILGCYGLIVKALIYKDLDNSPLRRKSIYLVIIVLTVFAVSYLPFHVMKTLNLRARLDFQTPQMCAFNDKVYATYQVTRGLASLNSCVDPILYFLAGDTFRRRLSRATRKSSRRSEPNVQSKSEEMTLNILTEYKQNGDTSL
In experiment [3] the target is T2, P2Y purinoceptor 11 (Homo sapiens, UniProt Q96G91).
T2 sequence (Q96G91 whole entry): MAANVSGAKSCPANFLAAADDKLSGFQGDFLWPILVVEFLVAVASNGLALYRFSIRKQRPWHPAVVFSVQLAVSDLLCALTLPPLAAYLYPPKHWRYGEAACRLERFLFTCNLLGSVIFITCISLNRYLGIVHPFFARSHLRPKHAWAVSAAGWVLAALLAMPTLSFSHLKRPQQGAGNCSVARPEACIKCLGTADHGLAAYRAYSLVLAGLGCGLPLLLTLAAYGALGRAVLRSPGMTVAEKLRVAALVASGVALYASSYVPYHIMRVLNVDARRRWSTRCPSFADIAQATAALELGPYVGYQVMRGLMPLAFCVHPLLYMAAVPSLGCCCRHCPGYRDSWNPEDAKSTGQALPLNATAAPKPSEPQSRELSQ
Briefly: Agonist activity against phospholipase C coupled human P2Y purinoceptor 11 (P2Y11). Type of experiment: functional.

The target in experiment [4] is T3, P2X purinoceptor 3 (Homo sapiens, UniProt P56373).
T3 sequence (P56373 whole entry): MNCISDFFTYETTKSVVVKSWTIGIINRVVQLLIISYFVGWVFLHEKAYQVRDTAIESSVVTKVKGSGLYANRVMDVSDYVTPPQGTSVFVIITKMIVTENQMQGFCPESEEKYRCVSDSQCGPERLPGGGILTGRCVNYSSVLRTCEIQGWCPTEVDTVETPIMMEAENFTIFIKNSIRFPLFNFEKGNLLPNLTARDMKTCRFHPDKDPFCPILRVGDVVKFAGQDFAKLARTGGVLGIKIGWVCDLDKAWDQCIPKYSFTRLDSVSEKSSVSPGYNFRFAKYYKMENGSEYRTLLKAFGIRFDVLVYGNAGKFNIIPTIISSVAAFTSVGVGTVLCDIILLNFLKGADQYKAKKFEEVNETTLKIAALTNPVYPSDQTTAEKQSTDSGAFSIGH
Briefly: Antagonist activity against recombinant human P2X purinoceptor 3 (P2X3 ). It counts as functional.

Experiment [5] deals with T4, P2X purinoceptor 1 (Homo sapiens, UniProt P51575).
T4 sequence (P51575 whole entry): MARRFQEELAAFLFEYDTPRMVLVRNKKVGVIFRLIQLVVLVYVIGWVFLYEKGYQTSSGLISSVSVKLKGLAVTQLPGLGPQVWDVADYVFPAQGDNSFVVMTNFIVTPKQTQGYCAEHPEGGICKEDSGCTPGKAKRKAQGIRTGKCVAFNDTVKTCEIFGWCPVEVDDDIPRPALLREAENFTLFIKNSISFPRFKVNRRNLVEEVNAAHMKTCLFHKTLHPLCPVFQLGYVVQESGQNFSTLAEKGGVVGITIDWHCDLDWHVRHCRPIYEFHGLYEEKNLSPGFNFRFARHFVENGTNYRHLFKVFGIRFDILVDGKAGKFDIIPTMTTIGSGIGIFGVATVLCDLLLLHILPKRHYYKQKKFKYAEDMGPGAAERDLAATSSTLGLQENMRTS
Briefly: Antagonist activity against recombinant human P2X purinoceptor 1 (P2X1 ). It counts as functional.

Experiment [6] concerns the target P2X purinoceptor 6 (Rattus norvegicus, UniProt P51579). Briefly: Antagonist activity against recombinant rat P2X purinoceptor 6 (P2X6 ). Type of experiment: functional.
The target of experiment [7] is P2Y purinoceptor 2 (Homo sapiens, UniProt P41231). Briefly: Evaluated for agonist activity against phospholipase C coupled recombinant human P2Y purinoceptor 2 (P2Y2). Type of experiment: functional.
Chain of P2Y purinoceptor 2 (P41231 whole entry): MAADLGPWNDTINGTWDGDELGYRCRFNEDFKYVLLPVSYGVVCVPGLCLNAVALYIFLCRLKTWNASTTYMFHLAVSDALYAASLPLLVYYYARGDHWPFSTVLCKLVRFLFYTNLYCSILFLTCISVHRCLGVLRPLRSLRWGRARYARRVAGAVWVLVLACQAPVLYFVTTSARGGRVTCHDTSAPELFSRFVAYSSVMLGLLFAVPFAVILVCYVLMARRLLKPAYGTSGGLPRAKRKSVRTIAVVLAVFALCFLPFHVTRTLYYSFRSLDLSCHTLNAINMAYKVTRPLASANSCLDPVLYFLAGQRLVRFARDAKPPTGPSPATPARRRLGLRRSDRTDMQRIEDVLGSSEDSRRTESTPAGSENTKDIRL
The target of experiment [8] is T5, P2X purinoceptor 4 (Rattus norvegicus, UniProt P51577).
T5 sequence (P51577 whole entry): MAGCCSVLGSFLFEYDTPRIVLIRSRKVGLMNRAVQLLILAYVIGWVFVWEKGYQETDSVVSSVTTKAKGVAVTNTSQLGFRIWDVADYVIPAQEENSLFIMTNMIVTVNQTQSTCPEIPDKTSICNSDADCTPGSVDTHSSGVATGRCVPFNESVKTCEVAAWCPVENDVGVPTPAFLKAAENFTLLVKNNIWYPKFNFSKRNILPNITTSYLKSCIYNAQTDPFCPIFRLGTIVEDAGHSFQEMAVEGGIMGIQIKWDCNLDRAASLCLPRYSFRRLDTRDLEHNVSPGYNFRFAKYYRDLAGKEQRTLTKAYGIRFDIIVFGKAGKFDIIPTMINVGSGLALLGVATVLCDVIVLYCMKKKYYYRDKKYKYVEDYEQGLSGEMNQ
Briefly: Antagonist activity against recombinant rat P2X purinoceptor 4 (P2X4) at 30 uM, expressed in Xenopus oocytes. It counts as functional, cell-based, Oocyte.

Experiment [9] concerns the target T6, P2X purinoceptor 2 (Rattus norvegicus, UniProt P49653).
T6 sequence (P49653 whole entry): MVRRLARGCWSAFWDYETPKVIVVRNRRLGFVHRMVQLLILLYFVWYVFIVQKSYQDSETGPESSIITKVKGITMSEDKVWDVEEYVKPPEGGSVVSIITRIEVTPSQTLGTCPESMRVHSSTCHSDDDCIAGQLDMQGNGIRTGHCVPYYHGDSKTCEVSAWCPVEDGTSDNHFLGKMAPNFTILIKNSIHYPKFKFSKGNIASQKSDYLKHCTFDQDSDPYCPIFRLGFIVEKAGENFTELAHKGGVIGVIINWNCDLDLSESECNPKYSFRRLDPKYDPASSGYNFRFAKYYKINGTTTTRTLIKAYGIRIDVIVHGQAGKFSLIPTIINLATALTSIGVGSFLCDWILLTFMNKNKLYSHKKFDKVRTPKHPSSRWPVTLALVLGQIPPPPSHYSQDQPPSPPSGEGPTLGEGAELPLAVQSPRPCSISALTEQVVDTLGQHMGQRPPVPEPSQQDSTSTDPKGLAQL
Briefly: Antagonist activity against recombinant rat receptor P2X purinoceptor 2 (P2X2) at 10 uM, expressed in Xenopus oocytes. Type of experiment: functional, cell-based, Oocyte.

For experiment [10], the target named is T7, P2X purinoceptor 5 (Rattus norvegicus, UniProt P51578).
T7 sequence (P51578 whole entry): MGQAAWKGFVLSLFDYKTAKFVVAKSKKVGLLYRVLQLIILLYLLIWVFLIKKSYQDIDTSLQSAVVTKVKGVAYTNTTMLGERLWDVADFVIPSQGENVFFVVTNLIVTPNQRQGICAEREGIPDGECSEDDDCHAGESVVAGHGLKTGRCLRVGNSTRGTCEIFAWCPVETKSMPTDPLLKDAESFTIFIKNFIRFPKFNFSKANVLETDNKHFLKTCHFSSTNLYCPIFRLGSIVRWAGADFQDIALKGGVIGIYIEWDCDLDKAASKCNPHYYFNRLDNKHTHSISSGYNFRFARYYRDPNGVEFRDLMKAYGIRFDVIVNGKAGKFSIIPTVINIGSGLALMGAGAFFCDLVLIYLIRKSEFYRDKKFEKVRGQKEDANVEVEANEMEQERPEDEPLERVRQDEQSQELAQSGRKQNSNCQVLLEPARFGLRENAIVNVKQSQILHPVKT
Briefly: Antagonist activity against recombinant rat P2X purinoceptor 5 (P2X5). It counts as functional.

Experiment [11] has as its target P2Y purinoceptor 12 (Rattus norvegicus, UniProt Q9EPX4). Briefly: Antagonist activity against phospholipase C coupled rat P2Y purinoceptor 12 (P2Y12). Type of experiment: functional.
For experiment [12], the target named is P2Y purinoceptor 6 (Homo sapiens, UniProt Q15077). Briefly: The compound was evaluated for agonist activity against phospholipase C coupled recombinant human P2Y purinoceptor 6 (P2Y6). It counts as functional.
Chain of P2Y purinoceptor 6 (Q15077 whole entry): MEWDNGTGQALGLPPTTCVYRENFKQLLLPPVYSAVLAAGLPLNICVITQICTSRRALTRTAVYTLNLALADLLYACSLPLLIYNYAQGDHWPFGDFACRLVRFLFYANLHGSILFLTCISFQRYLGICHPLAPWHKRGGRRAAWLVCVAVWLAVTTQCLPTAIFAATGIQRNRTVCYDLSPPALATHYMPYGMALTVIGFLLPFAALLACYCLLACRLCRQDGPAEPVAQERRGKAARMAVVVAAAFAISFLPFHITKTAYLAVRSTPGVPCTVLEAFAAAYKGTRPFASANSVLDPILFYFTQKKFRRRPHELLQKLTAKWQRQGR
Experiment [13] deals with T8, P2X purinoceptor 4 (Homo sapiens, UniProt Q99571).
T8 sequence (Q99571 whole entry): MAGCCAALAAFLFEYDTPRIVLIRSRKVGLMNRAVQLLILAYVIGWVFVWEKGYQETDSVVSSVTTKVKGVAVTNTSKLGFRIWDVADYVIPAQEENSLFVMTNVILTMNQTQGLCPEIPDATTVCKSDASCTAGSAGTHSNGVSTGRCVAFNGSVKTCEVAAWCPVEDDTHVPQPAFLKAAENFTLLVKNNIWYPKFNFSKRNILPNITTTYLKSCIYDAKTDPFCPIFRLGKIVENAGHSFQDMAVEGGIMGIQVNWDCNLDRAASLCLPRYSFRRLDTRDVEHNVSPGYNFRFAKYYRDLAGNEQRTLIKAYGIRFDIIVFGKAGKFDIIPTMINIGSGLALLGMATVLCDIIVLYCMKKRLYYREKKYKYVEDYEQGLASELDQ
Briefly: Antagonist activity against recombinant human P2X purinoceptor 4 (P2X4). Type of experiment: functional.

Experiment [14] addresses T1, P2X purinoceptor 1. Briefly: The compound was evaluated for antagonist activity against recombinant rat P2X purinoceptor 1 (P2X1) at 1 uM, expressed in Xenopus oocytes. It counts as functional, cell-based, Oocyte.
The target of experiment [15] is T5, P2X purinoceptor 4. Briefly: Antagonist activity against recombinant rat P2X purinoceptor 4 (P2X4) at 3 uM, expressed in Xenopus oocytes. It counts as functional, cell-based, Oocyte.
The target in experiment [16] is T1, P2X purinoceptor 1. Briefly: The compound was evaluated for antagonist activity against recombinant rat P2X purinoceptor 1 (P2X1). It counts as functional.

Chain of P2Y purinoceptor 12 (Q9EPX4 whole entry): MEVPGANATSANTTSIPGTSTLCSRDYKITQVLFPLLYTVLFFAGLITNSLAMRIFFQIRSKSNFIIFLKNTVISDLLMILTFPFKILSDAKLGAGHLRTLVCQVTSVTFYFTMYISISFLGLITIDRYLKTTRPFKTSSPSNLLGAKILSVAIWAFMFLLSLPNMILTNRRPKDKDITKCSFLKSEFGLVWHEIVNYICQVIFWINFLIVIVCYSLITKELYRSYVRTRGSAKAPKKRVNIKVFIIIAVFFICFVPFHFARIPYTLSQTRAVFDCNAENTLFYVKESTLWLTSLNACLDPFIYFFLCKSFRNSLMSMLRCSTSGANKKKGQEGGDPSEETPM
Chain of P2X purinoceptor 6 (P51579 whole entry): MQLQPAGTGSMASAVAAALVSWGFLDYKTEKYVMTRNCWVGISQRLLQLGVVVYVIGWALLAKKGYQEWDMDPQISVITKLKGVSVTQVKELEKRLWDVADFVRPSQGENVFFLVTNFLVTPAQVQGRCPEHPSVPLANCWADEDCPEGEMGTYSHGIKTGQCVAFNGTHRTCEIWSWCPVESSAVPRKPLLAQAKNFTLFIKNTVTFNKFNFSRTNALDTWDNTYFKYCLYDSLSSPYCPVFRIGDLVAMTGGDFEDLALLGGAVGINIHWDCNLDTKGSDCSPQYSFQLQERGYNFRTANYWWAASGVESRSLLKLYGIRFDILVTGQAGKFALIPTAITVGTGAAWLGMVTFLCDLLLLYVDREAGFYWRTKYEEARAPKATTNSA

By IC50 is commonly meant the concentration at which inhibition is half-maximal. The compound `Nc1c(S(=O)(=O)O)cc(Nc2ccc(Nc3nc(Cl)nc(Cl)n3)c(S(=O)(=O)O)c2)c2c1C(=O)c1ccccc1C2=O` returned an IC50 in [1] of 8800 nM.

By EC50 is commonly meant the concentration that produces a half-maximal response. For `Nc1ncnc2c1ncn2[C@@H]1O[C@H](CO[P@](=O)(O)O[P@](=O)(O)O[P@@](=O)(O)S)[C@@H](O)[C@H]1O`, the EC50 in [2] worked out at 1300 nM; in [3], 3000 nM; in experiment [4], 690 nM; in [5] it was 2300 nM; in [6], 1300 nM; in experiment [7], 1720 nM. The EC50 in experiment [8] is 2300 nM; in experiment [9], 1500 nM; in [10], 600 nM; in [11], 1300 nM.

Turning to `CSc1nc(N)c2ncn([C@@H]3O[C@H](COP(=O)(O)OP(=O)(O)OP(=O)(O)O)[C@@H](O)[C@H]3O)c2n1`, the 50% effective concentration (EC50) is 50000 nM in experiment [3]; 350 nM in [4]; 54 nM in [5]; 600 nM in experiment [6]; 100000 nM in [12]; 1000 nM in [13]. Moreover, the 50% effective concentration (EC50) is 7400 nM in experiment [8], 1500 nM in experiment [9], 1000 nM in [10] and 1.1 nM in [11].

As for `CCCCCCSc1nc(N)c2ncn([C@@H]3O[C@H](COP(=O)(O)O)[C@@H](O)[C@H]3O)c2n1`, the half-maximal effective concentration (EC50) in [2] was 4.8 nM; in experiment [14], 840 nM; in [15] it was 20000 nM.

As for `Nc1ncnc2c1ncn2[C@@H]1O[C@H](COP(=O)(O)OP(=O)(O)CP(=O)(O)O)[C@@H](O)[C@H]1O` [PHOSPHOMETHYLPHOSPHONIC ACID ADENYLATE ESTER], the EC50 in experiment [2] was above 100000 nM; in experiment [5] it was 2000 nM; in experiment [11], above 100000 nM.

Turning to `Nc1ncnc2c1ncn2[C@H]1C[C@H](O)[C@@H](COP(=O)(O)OP(=O)(O)OP(=O)(O)O)O1`, the EC50 in experiment [3] came to 9000 nM.

Take `O=c1[nH]cnc2c1ncn2[C@@H]1O[C@H](COP(=O)(O)OP(=O)(O)OP(=O)(O)OP(=O)(O)OP(=O)(O)OC[C@H]2O[C@@H](n3cnc4c(=O)[nH]cnc43)[C@H](O)[C@@H]2O)[C@@H](O)[C@H]1O`: in experiment [16], the EC50 came out at 1.5 nM.

As usually defined, the Kd is the free concentration of one partner at which half of the binding sites on the other are occupied at equilibrium, for simple one-to-one binding. For `Cc1cc(C)c(Nc2cc(S(=O)(=O)O)c(N)c3c2C(=O)c2ccccc2C3=O)c(C)c1` [ACID BLUE 129], the Kd in [1] is above 100000 nM.
